Columns and labels:
Experiment in all cases: MIC, broth microdilution
Assay type in all cases: cell-based
[1] = system: A. baumannii ATCC 19606; settings: Acinetobacter baumannii, ATCC19606; A. baumannii ATCC 19606; read-out: Minimum inhibitory concentration A.b.^f
Experimental: (§1) The minimum inhibitory concentration of 3H-imidazo[4,5-C]pyridine pleuromutilin onium salt derivatives against the tested pathogenic microorganisms were determined by broth microdilution method, with valnemulin and retapamulin as positive controls.
(§2) The experimental strains included resistant Gram-positive bacteria: Methicillin-resistant S. aureus ATCC 33591; Methicillin-resistant S. aureus ATCC 43300; S. aureus ATCC 29213; Methicillin-resistant S. epidermidis ATCC 51625. Resistant Gram-negative bacteria: A. baumannii ATCC 19606; S. enterica ATCC14028; E. coli ATCC 25922; E. coli CMCC 44103. 9 clinically isolated resistant strains: MRSA-171; MRSA-575; MRSA-206; MRSA-222; MRSA-596; VRE-80; MDR-PA-126; MDR-KP-893; CR-AB-882.
(§3) (1) Preparation of MHB medium: Weigh 18.0 g of MHB medium pre-made powder, add it to 1 L of distilled water, heat and boil until completely dissolved, divide it into conical bottles, sterilize it by high pressure at 121° C. for 15 minutes, and set aside.
(§4) (2) Cultivate the experimental strain to the logarithmic growth phase: Under sterile conditions, inoculate the experimental strain into fresh MHB medium and culture it in a 37° C. constant temperature and humidity incubator for 16-24 hours. Adjust the bacterial solution concentration to 1.5×10^8 CFU/mL and then dilute it 200 times for later use.
(§5) (3) Preparation of storage solution: Weigh the sample to be tested, dissolve it in 1% DMSO solution, and prepare a storage solution with a concentration of 2560 μg/mL; weigh the positive control, dissolve it in sterile distilled water, and prepare a storage solution with a concentration of 2560 μg/mL.
(§6) (4) Preparation of bacterial suspension: Under sterile conditions, the experimental strain cultured to the logarithmic growth phase was calibrated to a 0.5 McFarland unit turbidity standard using MHB medium and then diluted at a ratio of 1:200 to prepare a bacterial suspension with a concentration of 5×10^5 CFU/mL for later use.
(§7) (5) Determination of MIC by two-fold microdilution method: Take a sterile 96-well plate, add 10 μL of the test compound at a concentration of 2560 μg/mL, and perform serial dilutions by the two-fold dilution method. At the same time, set up a negative control group without drug. Then add 190 μL of diluted bacterial solution to each well, so that the final bacterial solution concentration in each well is 5×10^5 CFU/mL, and incubate in a 37° C. constant temperature and humidity chamber for 24 hours.

[2] = system: E. coli ATCC 25922; settings: Escherichia coli, ATCC25922; E. coli ATCC 25922; read-out: Minimum inhibitory concentration E.c.^h
Experimental: as §1, §2, §3, §4, §5, §6, §7

[3] = system: E.coli CMCC 44103; settings: Escherichia coli, CMCC44103; E.coli CMCC 44103; read-out: Minimum inhibitory concentration E.c.^i
Experimental: as §1, §2, §3, §4, §5, §6, §7

[4] = system: Methicillin-resistant S. aureus ATCC 33591; settings: Staphylococcus aureus, ATCC 33591 / MRSA; Methicillin-resistant S. aureus ATCC 33591; read-out: Minimum inhibitory concentration MRSA^b
Experimental: as §1, §2, §3, §4, §5, §6, §7

[5] = system: Methicillin-resistant S. aureus ATCC 43300; settings: Staphylococcus aureus, ATCC 43300 / MRSA; Methicillin-resistant S. aureus ATCC 43300; read-out: Minimum inhibitory concentration MRSA^c
Experimental: as §1, §2, §3, §4, §5, §6, §7

[6] = system: Methicillin-resistant S. epidermidis ATCC 51625; settings: Staphylococcus epidermidis, ATCC 51625 / MRSE; Methicillin-resistant S. epidermidis ATCC 51625; read-out: Minimum inhibitory concentration MRSE^e
Experimental: as §1, §2, §3, §4, §5, §6, §7

[7] = system: S. aureus ATCC 29213; settings: Staphylococcus aureus, ATCC29213; S. aureus ATCC 29213; read-out: Minimum inhibitory concentration S.a.^d
Experimental: as §1, §2, §3, §4, §5, §6, §7

[8] = system: S. enterica ATCC14028; settings: Salmonella enterica; S. enterica ATCC14028; read-out: Minimum inhibitory concentration S.e.^g
Experimental: as §1, §2, §3, §4, §5, §6, §7

Structure (SMILES)	MIC [1]	MIC [2]	MIC [3]	MIC [4]	MIC [5]	MIC [6]	MIC [7]	MIC [8]
C=C[C@]1(C)C[C@@H](OC(=O)CSc2nc3cc[n+](Cc4ccc([N+](=O)[O-])cc4)cc3[nH]2)[C@]2(C)[C@H](C)CC[C@]3(CCC(=O)[C@H]32)[C@@H](C)[C@@H]1O [Compound f, 5-(4-nitrobenzyl)-2-((2-(((3aR,4R,5R,7S,8S,9R,9aS,12R)-8-hydroxy-4,7,9,12-tetramethyl-3-oxo-7-vinyldecahydro-4,9a-propancyclopenta[8]cyclo-5-yl)oxy)-2-oxoethyl)thio)-3H-imidazo[4,5-C]pyridine-5-ium]	8 µg/mL	16 µg/mL	8 µg/mL	8 µg/mL	2 µg/mL	4 µg/mL	4 µg/mL	4 µg/mL
C=C[C@]1(C)C[C@@H](OC(=O)CSc2nc3cc[n+](Cc4cc(F)c(F)cc4F)cc3[nH]2)[C@]2(C)[C@H](C)CC[C@]3(CCC(=O)[C@H]32)[C@@H](C)[C@@H]1O [Compound g, 5-(2,4,5-trifluorobenzyl)-2-((2-(((3aR,4R,5R,7S,8S,9R,9aS,12R)-8-hydroxy-4,7,9,12-tetramethyl-3-oxo-7-vinyldecahydro-4,9a-propancyclopenta[8]cyclo-5-yl)oxy)-2-oxoethyl)thio)-3H-imidazo[4,5-C]pyridine-5-ium]	64 µg/mL	64 µg/mL	128 µg/mL	128 µg/mL	64 µg/mL	64 µg/mL	64 µg/mL	128 µg/mL
C=C[C@]1(C)C[C@@H](OC(=O)CSc2nc3cc[n+](Cc4ccc(-c5ccccc5)cc4)cc3[nH]2)[C@]2(C)[C@H](C)CC[C@]3(CCC(=O)[C@H]32)[C@@H](C)[C@@H]1O [Compound j, 5-([1,1′-biphenyl]-4-ylmethyl)-2-((2-(((3aR,4R,5R,7S,8S,9R,9aS,12R)-8-hydroxy-4,7,9,12-tetramethyl-3-oxo-7-vinyldecahydro-4,9a-propancyclopenta[8]cyclo-5-yl)oxy)-2-oxoethyl)thio)-3H-imidazo[4,5-C]pyridine-5-ium]	16 µg/mL	64 µg/mL	8 µg/mL	32 µg/mL	16 µg/mL	32 µg/mL	4 µg/mL	8 µg/mL
C=C[C@]1(C)C[C@@H](OC(=O)CSc2nc3cc[n+](Cc4ccc(C(C)(C)C)cc4)cc3[nH]2)[C@]2(C)[C@H](C)CC[C@]3(CCC(=O)[C@H]32)[C@@H](C)[C@@H]1O [Compound k, 5-(4-(tert-butyl)benzyl)-2-((2-(((3aR,4R,5R,7S,8S,9R,9aS,12R)-8-hydroxy-4,7,9,12-tetramethyl-3-oxo-7-vinyldecahydro-4,9a-propancyclopenta[8]cyclo-5-yl)oxy)-2-oxoethyl)thio)-3H-imidazo[4,5-C]pyridine-5-ium]	16 µg/mL	32 µg/mL	32 µg/mL	8 µg/mL	32 µg/mL	8 µg/mL	16 µg/mL	32 µg/mL
C=C[C@]1(C)C[C@@H](OC(=O)CSc2nc3cc[n+](Cc4cc(C)cc(C)c4)cc3[nH]2)[C@]2(C)[C@H](C)CC[C@]3(CCC(=O)[C@H]32)[C@@H](C)[C@@H]1O [Compound l, 5-(3,5-dimethylbenzyl)-2-((2-(((3aR,4R,5R,7S,8S,9R,9aS,12R)-8-hydroxy-4,7,9,12-tetramethyl-3-oxo-7-vinyldecahydro-4,9a-propancyclopenta[8]cyclo-5-yl)oxy)-2-oxoethyl)thio)-3H-imidazo[4,5-C]pyridine-5-ium]	64 µg/mL	64 µg/mL	64 µg/mL	64 µg/mL	32 µg/mL	64 µg/mL	64 µg/mL	32 µg/mL
C=C[C@]1(C)C[C@@H](OC(=O)CSc2nc3cc[n+](Cc4cc(F)ccc4C#N)cc3[nH]2)[C@]2(C)[C@H](C)CC[C@]3(CCC(=O)[C@H]32)[C@@H](C)[C@@H]1O [Compound m, 5-(2-cyano-5-fluorobenzyl)-2-((2-(((3aR,4R,5R,7S,8S,9R,9aS,12R)-8-hydroxy-4,7,9,12-tetramethyl-3-oxo-7-vinyldecahydro-4,9a-propancyclopenta[8]cyclo-5-yl)oxy)-2-oxoethyl)thio)-3H-imidazo[4,5-C]pyridine-5-ium]	64 µg/mL	64 µg/mL	32 µg/mL	64 µg/mL	32 µg/mL	64 µg/mL	32 µg/mL	32 µg/mL
C=C[C@]1(C)C[C@@H](OC(=O)CSc2nc3cc[n+](Cc4cc(OC)cc(OC)c4)cc3[nH]2)[C@]2(C)[C@H](C)CC[C@]3(CCC(=O)[C@H]32)[C@@H](C)[C@@H]1O [Compound n, 5-(3,5-dimethoxybenzyl)-2-((2-(((3aR,4R,5R,7S,8S,9R,9aS,12R)-8-hydroxy-4,7,9,12-tetramethyl-3-oxo-7-vinyldecahydro-4,9a-propancyclopenta[8]cyclo-5-yl)oxy)-2-oxoethyl)thio)-3H-imidazo[4,5-C]pyridine-5-ium]	64 µg/mL	64 µg/mL	32 µg/mL	64 µg/mL	32 µg/mL	64 µg/mL	32 µg/mL	128 µg/mL
